Laboratory results taken from US3956312A, “Indazole-3-carboxylic acid hydrazides and a process for the preparation thereof” (Egyt Gyogyszervegyeszeti Gyar, priority 1973, dated 1976).
Counter-ions that a name gives are not always drawn. Like-named read-outs stand apart in the source and are kept apart here.

Tests used:
[1] = tested on: gastric acid secretion; test: inhibition of gastric acid secretion, Shay's method; format: in vivo, Wistar rats; details: 5 hours
Procedure: The animals were operated according to Shay's method, and the substance to be tested was administered intraperitoneally. After 5 hours the animals were sacrified, and the volume of gastric juice, the amount of free hydrochloric acid, and the total acidity were determined.

[2] = tested on: small intestines; test: spasmolytic effect in vivo, carbon suspension method of Stickney; details: Mus musculus, ip; white mice, intraperitoneal, Litchfield-Wilcoxon
Procedure: (§1) The spasmolytic effect was tested under in vivo conditions on white mice, by the carbon suspension method of Stickney. The active agents were administered intraperitoneally, and the total length of the small intestines as well as the length of the intestines filled with carbon were measured. […] The ED50 values were calculated according to the LitchfieldWilcoxon method from the thus-transformed values. In order to evaluate the safety margin of the active agents, the acute LD50 values were also determined on white mice in intraperitoneal administration. The observation periods in the toxicity tests were 48 hours, and the calculation was performed according to the LitchfieldWilcoxon method, also taking into consideration the perished animals.

[3] = as above; details: mouse, in vivo, ip; Table 1, spasmolytic effect, white mice, intraperitoneal; read-out: Therapeutical index LD50/ED50
Procedure: as §1

[4] = acute toxicity (LD50), intraperitoneal, 48 hours observation; details: mouse, in vivo, ip, read-out: Toxicity LD5
Procedure: as §1

[5] = tested on: gastric acid secretion; test: inhibition of gastric acid secretion, Shay's method; format: in vivo, Wistar rats; details: 5 hours; remark: listed apart in the source
[6] = toxicity on mice p.o. (Table 2); details: mouse, in vivo, po
[7] = tested on: Shay ulcer; test: antiulcer activity, Shay ulcer; format: in vivo, rats; details: related to the controls averages
Procedure: (§2) The antiulcer activity of 5,6-dimethoxyindazole-3-carboxylic acid-benzylhydrazide was determined on rats.
**Shay ulcer (Shay, H., Komarov, S.A., Fels, S.S., Meranze, D.,
Gruenstein, M., Siplet, H.: Gastroenterology 5, 45 /1945/)

[8] = tested on: tetrabenazine ptosis; test: antidepressant activity, inhibition of tetrabenazine ptosis; format: in vivo, mice; details: for ED50: Mus musculus, mice, oral, tetrabenazine ptosis
Procedure: (§3) The antidepressant activity was examined on mice, after oral administration. Tetrabenazine was administered to the animals in a dosage provoking maximum ptosis, and the inhibiting activity of the tested compounds was measured.

[9] = as above; format: in vivo, mice; details: mouse, in vivo; Table 4, antidepressant activity, mice, oral; read-out: Therapeutical index
Procedure: as §3

[10] = toxicity LD50 listed with the antidepressant activity (Table 4); details: mouse, in vivo
[11] = tested on: Reserpine-ulcer; test: antiulcer activity, Reserpine-ulcer; format: in vivo, rats; details: related to the controls averages
Procedure: as §2

[12] = white mice, intraperitoneal, 48 hours observation

CCN(CC)CCOC(=O)C(c1ccccc1)c1ccccc1.Cl [Adiphenine, 2-diethylaminoethyl-diphenylacetate hydrochloride, reference compound]
Percentage inhibition of free HCl ([1]; 100 mg./kg. intraperitoneal): 0% | Percentage inhibition of gastric juice ([1]; 100 mg./kg. intraperitoneal): 36% | Percentage inhibition of total acidity ([1]; 100 mg./kg. intraperitoneal): 0%

COc1cc2[nH]nc(C(=O)NNC(C)C)c2cc1OC [Compound 7]
ED50 [2]: 36 mg/kg | selectivity ratio [3]: 20 | LD50 at 48 h [4, 12]: 720 mg/kg | Percentage inhibition of free HCl ([1]; 100 mg./kg. intraperitoneal): 85% | Percentage inhibition of gastric juice ([1]; 100 mg./kg. intraperitoneal): 80% | Percentage inhibition of total acidity ([1]; 100 mg./kg. intraperitoneal): 67%

COc1cc2[nH]nc(C(=O)NNC3CCCCCC3)c2cc1OC [Compound 28, 5,6-dimethoxyindazole-3-carboxylic acid-cycloheptylhydrazide]
ED50 [2]: 280 mg/kg | selectivity ratio [3]: 4.3 | Percentage inhibition of gastric juice ([5]; 50 mg./kg. intraperitoneal): 46% | Percentage inhibition of total acidity ([5]; 50 mg./kg. intraperitoneal): 38% | LD50 at 48 h [4, 12]: 1200 mg/kg | Percentage inhibition of free HCl ([1]; 50 mg./kg. intraperitoneal): 47% | Percentage inhibition of free HCl ([1]; 100 mg./kg. intraperitoneal): 63% | Percentage inhibition of gastric juice ([1]; 100 mg./kg. intraperitoneal): 47% | Percentage inhibition of total acidity ([1]; 100 mg./kg. intraperitoneal): 36%

COc1cc2[nH]nc(C(=O)NNCc3ccccc3)c2cc1OC [Compound 30, 5,6-dimethoxyindazole-3-carboxylic acid-benzylhydrazide]
Percentage inhibition of gastric juice ([5]; 25 mg./kg. i.p.): 13% | Percentage inhibition of free HCl ([5]; 50 mg./kg. p.o.): 50% | Percentage inhibition of gastric juice ([5]; 50 mg./kg. p.o.): 36% | Percentage inhibition of total acidity ([5]; 50 mg./kg. p.o.): 39% | Percentage inhibition of free HCl ([5]; 100 mg./kg. p.o.): 76% | Percentage inhibition of gastric juice ([5]; 100 mg./kg. p.o.): 48% | Percentage inhibition of total acidity ([5]; 100 mg./kg. p.o.): 63% | Percentage inhibition of free HCl ([5]; 200 mg./kg. i.p.): 72% | Percentage inhibition of gastric juice ([5]; 200 mg./kg. i.p.): 63% | Percentage inhibition of total acidity ([5]; 200 mg./kg. i.p.): 64% | Percentage inhibition of free HCl ([1]; 25 mg./kg. i.p.): 33% | Percentage inhibition of total acidity ([1]; 25 mg./kg. i.p.): 20% | Percentage inhibition of free HCl ([1]; 100 mg./kg. intraperitoneal): 74% | Percentage inhibition of gastric juice ([1]; 100 mg./kg. intraperitoneal): 48% | Percentage inhibition of total acidity ([1]; 100 mg./kg. intraperitoneal): 56% | LD50 [6]: 2000 mg/kg | Percentage inhibition according to the occurrence of ulcer ([7]; 100 mg./kg.): 12% | Percentage inhibition according to the ulcer index ([7]; 100 mg./kg.): 33% | Percentage inhibition according to ulcer diameters 2-5 mm. ([7]; 100 mg./kg.): 42% | Percentage inhibition according to ulcer diameters 5-10 mm. ([7]; 100 mg./kg.): 71% | Percentage inhibition according to ulcer diameters <2 mm. ([7]; 100 mg./kg.): 0% | Percentage inhibition according to ulcer diameters >10 mm. ([7]; 100 mg./kg.): 62% | Percentage inhibition according to the occurrence of ulcer ([7]; 200 mg./kg.): 22% | Percentage inhibition according to the ulcer index ([7]; 200 mg./kg.): 53% | Percentage inhibition according to ulcer diameters 2-5 mm. ([7]; 200 mg./kg.): 85% | Percentage inhibition according to ulcer diameters 5-10 mm. ([7]; 200 mg./kg.): 67% | Percentage inhibition according to ulcer diameters <2 mm. ([7]; 200 mg./kg.): 86% | Percentage inhibition according to ulcer diameters >10 mm. ([7]; 200 mg./kg.): 100% | ED50 [8]: 140 mg/kg | selectivity ratio [9]: 14.3 | LD50 ([10]; Table 4): 2000 mg/kg | Percentage inhibition according to the occurrence of ulcer ([11]; 10 mg./kg.): 0% | Percentage inhibition according to the ulcer index ([11]; 10 mg./kg.): 14% | Percentage inhibition according to ulcer diameters 2-5 mm. ([11]; 10 mg./kg.): 14% | Percentage inhibition according to ulcer diameters 5-10 mm. ([11]; 10 mg./kg.): 0% | Percentage inhibition according to ulcer diameters <2 mm. ([11]; 10 mg./kg.): 22% | Percentage inhibition according to ulcer diameters >10 mm. ([11]; 10 mg./kg.): 0% | Percentage inhibition according to the occurrence of ulcer ([11]; 25 mg./kg.): 70% | Percentage inhibition according to the ulcer index ([11]; 25 mg./kg.): 81% | Percentage inhibition according to ulcer diameters 2-5 mm. ([11]; 25 mg./kg.): 100% | Percentage inhibition according to ulcer diameters 5-10 mm. ([11]; 25 mg./kg.): 100% | Percentage inhibition according to ulcer diameters <2 mm. ([11]; 25 mg./kg.): 93% | Percentage inhibition according to ulcer diameters >10 mm. ([11]; 25 mg./kg.): 100% | Percentage inhibition according to the occurrence of ulcer ([11]; 50 mg./kg.): 90% | Percentage inhibition according to the ulcer index ([11]; 50 mg./kg.): 97% | Percentage inhibition according to ulcer diameters 2-5 mm. ([11]; 50 mg./kg.): 100% | Percentage inhibition according to ulcer diameters 5-10 mm. ([11]; 50 mg./kg.): 100% | Percentage inhibition according to ulcer diameters <2 mm. ([11]; 50 mg./kg.): 98% | Percentage inhibition according to ulcer diameters >10 mm. ([11]; 50 mg./kg.): 100%

COc1cc2[nH]nc(C(=O)NNCc3ccccc3O)c2cc1OC [Compound 32, 5,6-dimethoxyindazole-3-carboxylic acid-2'-hydroxybenzylhydrazide]
ED50 [2]: 25 mg/kg | selectivity ratio [3]: 120 | LD50 at 48 h [4]: > 3000 mg/kg | ED50 [8]: 22 mg/kg | therapeutical width ([8]; compared with amitryptiline): significantly exceeds that of the well known agent, amitryptiline | selectivity ratio [9]: 136 | LD50 [10]: > 3000 mg/kg

COc1cc2[nH]nc(C(=O)NNC(C)c3ccc([N+](=O)[O-])cc3)c2cc1OC (centres unmarked) [Compound 35, 5,6-dimethoxyindazole-3-carboxylic acid-1'-(4"-nitrophenyl)-ethylhydrazide]
ED50 [2]: 2.5 mg/kg | selectivity ratio [3]: 2000 | LD50 at 48 h [4]: 5000 mg/kg | ED50 [8]: 280 mg/kg | selectivity ratio [9]: 17.9 | LD50 [10]: > 5000 mg/kg

COc1ccc(CC(C)NNC(=O)c2n[nH]c3cc(OC)c(OC)cc23)cc1OC (centres unmarked) [Compound 37, 5,6-dimethoxyindazole-3-carboxylic acid-2'-(3'-/3",4"-dimethoxyphenyl/)-propylhydrazide]
ED50 [2]: 8.7 mg/kg | selectivity ratio [3]: 310 | LD50 at 48 h [4, 12]: 2700 mg/kg

CCCN(CCC)C(=O)C(CCC(=O)O)NC(=O)c1ccccc1 (centres unmarked) [Xylamide, reference compound]
Percentage inhibition of free HCl ([5]; 500 mg./kg. intraperitoneal): 89% | Percentage inhibition of gastric juice ([5]; 500 mg./kg. intraperitoneal): 81% | Percentage inhibition of total acidity ([5]; 500 mg./kg. intraperitoneal): 80%

CN(C)CCC=C1c2ccccc2CCc2ccccc21 [amitryptiline, 5-(3-dimethylamino-propylidene)-10,11-dihydro-5H-dibenzo(a,d)cycloheptan hydrochloride, reference compound]
ED50 [8]: 13 mg/kg | selectivity ratio [9]: 17.3 | LD50 ([10]; Table 4): 225 mg/kg

COc1ccc(Cc2nccc3cc(OC)c(OC)cc23)cc1OC [papaverine, reference compound]
ED50 [2]: 46 mg/kg | selectivity ratio [3]: 2.9 | LD50 at 48 h [4, 12]: 132 mg/kg
